Laboratory results: patent publication US20220296595A1, “CDK INHIBITORS” (QILU REGOR THERAPEUTICS INC., priority 2019, published 2022)
Like-named read-outs stand apart in the source and are kept apart here.

Key:
CDK4/CyclinD1 = biological target: T1, CDK4/CyclinD1 (Homo sapiens, UniProt P11802); assay: Assay for inhibition of CDK4/CyclinD1 (Caliper microfluidic kinase assay); assay type: biochemical
T1 construct: purchased Thermofisher PR8064A
How it was run: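 Caliper microfluidic mobility-shift assay tracking phosphorylation of 1 μM FL-34 peptide by 1 nM CDK4/CyclinD1 with 200 μM ATP in HEPES pH 7.5 buffer with 10 mM MgCl2. Reaction ran 3 h at room temperature, was stopped with EDTA, and IC50 came from a 4-parameter sigmoidal fit.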

CDK6/CyclinD3 = biological target: T2, CDK6/CyclinD3 (Homo sapiens, UniProt Q00534); assay: Assay for inhibition of CDK6/CyclinD3 (Caliper microfluidic kinase assay); assay type: biochemical
T2 construct: purchased Carna 04-107
T2 sequence (Q00534 whole entry): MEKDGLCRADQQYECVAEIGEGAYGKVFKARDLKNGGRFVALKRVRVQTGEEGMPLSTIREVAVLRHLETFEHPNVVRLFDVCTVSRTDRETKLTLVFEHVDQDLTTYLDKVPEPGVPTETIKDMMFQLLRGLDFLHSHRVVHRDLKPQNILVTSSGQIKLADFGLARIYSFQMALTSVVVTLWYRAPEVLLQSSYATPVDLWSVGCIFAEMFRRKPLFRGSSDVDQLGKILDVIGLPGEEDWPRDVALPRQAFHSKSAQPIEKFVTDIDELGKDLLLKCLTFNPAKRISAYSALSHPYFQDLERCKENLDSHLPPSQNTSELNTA
T2 sequence (P30281 whole entry partner): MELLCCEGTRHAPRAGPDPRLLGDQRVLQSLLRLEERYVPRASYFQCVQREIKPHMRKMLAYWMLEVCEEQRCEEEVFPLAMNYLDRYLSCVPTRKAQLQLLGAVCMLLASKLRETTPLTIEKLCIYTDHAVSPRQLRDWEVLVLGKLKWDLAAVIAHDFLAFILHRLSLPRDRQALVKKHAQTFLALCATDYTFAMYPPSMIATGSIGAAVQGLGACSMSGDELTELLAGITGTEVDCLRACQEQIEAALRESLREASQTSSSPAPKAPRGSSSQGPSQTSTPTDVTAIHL
How it was run: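 Caliper mobility-shift readout of FAM-labelled peptide (FL-34, 1 μM) phosphorylation by 2 nM CDK6/CyclinD3 at 300 μM ATP in HEPES pH 7.5 buffer with MgCl2, DTT; 3 h at room temperature, EDTA stop. IC50 from 4-parameter sigmoidal fit.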

CDK2/CyclinE1 = biological target: T3, CDK2/CyclinE1 (Homo sapiens, UniProt P24941); assay: Assay for inhibition of CDK2/CyclinE1 (Caliper microfluidic kinase assay); assay type: biochemical; conditions: read-out: CDK2 IC50
T3 construct: purchased SignalChem C29-18G
How it was run: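 Caliper microfluidic mobility-shift assay: 5 nM CDK2/CyclinE1, 100 μM ATP, 5 μM FL-18 peptide (5-FAM-QSPKKG-NH2) in pH 7.5 HEPES buffer with MgCl2, DTT, BSA, Triton X-100. Incubated 3 hours at room temperature, EDTA-stopped; IC50 from 4-parameter sigmoidal fit.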

T47D breast cancer cells = assay: Anti-proliferation assay in T47D cell (Cyquant, day 6); assay type: cell-based, human; conditions: Homo sapiens, T47D, anti-proliferation, T47D cells; read-out: T47D IC50
How it was run: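 Cells were grown in RPMI 1640 with 10% FBS at 37 °C and dosed the day after plating at ten concentrations, 10 μM to 0.51 nM in 3-fold steps. CyQuant fluorescence (ex 485/em 535 nm) was read on day 6. IC50 was fitted from baseline-subtracted viability curves, with the baseline read after overnight culture.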

[1] = system: phosphorylation of Retinoblastoma Protein (pRb Ser807/811 or Ser780) in T47D cells; assay: Inhibition of phosphorylation of retinoblastoma protein (pRb) in T47D cell (ELISA); assay type: cell-based, human; conditions: Homo sapiens, T47D, read-out: Phospho T47D Ser807 IC50, pRb Ser807 phosphorylation, T47D cells
How it was run: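 T47D cells in RPMI 1640 + 10% FBS, adhered overnight, then treated 24 h with 3-fold compound titrations (top concentration […]). Lysates assayed by sandwich ELISA for pRb Ser807/811 or Ser780 with HRP/TMB detection. IC50 from 4-parameter sigmoidal fit.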

T1 sequence (P11802 whole entry): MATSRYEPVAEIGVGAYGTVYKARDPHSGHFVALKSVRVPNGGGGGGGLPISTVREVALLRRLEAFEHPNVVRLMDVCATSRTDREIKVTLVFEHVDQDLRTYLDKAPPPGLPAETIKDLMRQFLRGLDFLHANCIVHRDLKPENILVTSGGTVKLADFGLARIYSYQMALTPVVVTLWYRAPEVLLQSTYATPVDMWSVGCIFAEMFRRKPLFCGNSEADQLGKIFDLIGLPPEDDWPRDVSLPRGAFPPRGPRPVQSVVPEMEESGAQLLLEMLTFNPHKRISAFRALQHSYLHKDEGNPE
T1 sequence (P24385 whole entry partner): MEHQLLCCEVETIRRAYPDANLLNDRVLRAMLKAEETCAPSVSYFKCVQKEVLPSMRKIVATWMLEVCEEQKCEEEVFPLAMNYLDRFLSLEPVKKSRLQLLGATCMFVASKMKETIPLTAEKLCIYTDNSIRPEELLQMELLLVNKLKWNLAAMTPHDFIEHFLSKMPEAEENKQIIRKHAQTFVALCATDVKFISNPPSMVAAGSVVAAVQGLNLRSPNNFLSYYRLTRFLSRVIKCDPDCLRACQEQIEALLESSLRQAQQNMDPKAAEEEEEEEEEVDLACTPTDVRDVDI

Row | SMILES | IC50 (CDK4/CyclinD1; CDK4/CyclinD1) [nM] | IC50 (CDK6/CyclinD3; CDK6/CyclinD3) [nM] | IC50 (CDK2/CyclinE1; CDK2/CyclinE1) [nM] | IC50 (T47D breast cancer cells) [nM] | IC50 [1] [nM] | IC50 (CDK4/CyclinD1; CDK4/CyclinD1, 200 μM ATP) [nM] | IC50 (CDK6/CyclinD3; CDK6/CyclinD3, 300 μM ATP) [nM] | IC50 (CDK2/CyclinE1; CDK2/CyclinE1, 100 μM ATP) [nM]
1 | COc1nc(-c2nc(Nc3ccc(N4CCOCC4=O)cn3)ncc2F)cc2c1ncn2C(C)C [compound 78] | < 10 | 10 to 100 | 100 to 1000 | < 100 | < 100 | – | – | –
2 | COc1nc(-c2ccnc(Nc3ccc(C(=O)N4CCC(NC5CC5)C4)cc3)n2)cc2c1ncn2C(C)C (stereo not drawn) [compound 80] | < 10 | 10 to 100 | < 10 | 100 to 500 | < 100 | – | – | –
3 | COc1nc(-c2nc(Nc3ccc(N4CCOCC4=O)cn3)ncc2Cl)cc2c1nc(C)n2C(C)C [compound 83] | < 10 | < 10 | 100 to 1000 | < 100 | < 100 | – | – | –
4 | COc1nc(-c2ccnc(Nc3ccc(N4CCC(N(C)C)CC4=O)cn3)n2)cc2c1ncn2C(C)C (stereo not drawn) [compound 91] | < 10 | < 10 | 100 to 1000 | < 100 | < 100 | – | – | –
5 | COc1nc(-c2nc(Nc3ccc(N4CCCCC4=O)cn3)ncc2F)cc2c1nc(C)n2C(C)C [compound 93] | < 10 | 10 to 100 | > 1000 | 100 to 500 | 100 to 500 | – | – | –
6 | COc1nc(-c2nc(Nc3ccc(N4CCC(N(C)C)CC4)cn3)ncc2F)cc2c1nc(C)n2C(C)C [compound 94] | < 10 | 10 to 100 | > 1000 | < 100 | 100 to 500 | – | – | –
7 | COc1nc(-c2nc(Nc3ccc(N4CCOCC4=O)cn3)ncc2F)cc2c1nc(C)n2C(C)C [compound 98] | < 10 | 10 to 100 | > 1000 | < 100 | < 100 | – | – | –
8 | COc1nc(-c2ccnc(Nc3ccc(N4CCC(N5CC(F)C5)CC4=O)cn3)n2)cc2c1ncn2C(C)C (stereo not drawn) [compound 99] | < 10 | 10 to 100 | 100 to 1000 | < 100 | < 100 | – | – | –
9 | COc1nc(-c2nc(Nc3ccc(N4CCN(C)CC4)cn3)ncc2F)cc2c1nc(C)n2C(C)C [compound 103] | 10 to 100 | 10 to 100 | > 1000 | 100 to 500 | < 100 | – | – | –
10 | COc1nc(-c2ccnc(Nc3ccc(N4CC5CC4CN5)cn3)n2)cc2c1ncn2C(C)C (stereo not drawn) [compound 109] | – | – | – | < 100 | < 100 | < 10 | 10 to 100 | > 1000
11 | COc1nc(-c2nc(Nc3ccc(N4CCNCC4=O)cc3F)ncc2F)cc2c1ncn2C(C)C [compound 111] | – | – | – | 100 to 500 | 100 to 500 | < 10 | 10 to 100 | 10 to 100
12 | COc1nc(-c2nc(Nc3ccc(N4CCNCCC4=O)cn3)ncc2F)cc2c1nc(C)n2C(C)C [compound 112] | – | – | – | < 100 | 100 to 500 | < 10 | 10 to 100 | > 1000
13 | COc1nc(-c2nc(Nc3ccc(N4CCCNCC4=O)cn3)ncc2F)cc2c1nc(C)n2C(C)C [compound 113] | – | – | – | 100 to 500 | 100 to 500 | < 10 | 10 to 100 | 100 to 1000
14 | COc1nc(-c2nc(Nc3ccc(N4CCNCC4=O)c(F)c3)ncc2F)cc2c1ncn2C(C)C [compound 115] | – | – | – | 100 to 500 | 100 to 500 | < 10 | 10 to 100 | 10 to 100
15 | COc1nc(-c2ccnc(Nc3ccc(N4CCNCC4=O)c(F)c3)n2)cc2c1ncn2C(C)C [compound 116] | – | – | – | 100 to 500 | < 100 | < 10 | 10 to 100 | 10 to 100
16 | COc1nc(-c2ccnc(Nc3ccc(N4CCC(C)(N)C4)cn3)n2)cc2c1ncn2C(C)C (stereo not drawn) [compound 117] | – | – | – | 100 to 500 | 100 to 500 | 10 to 100 | 10 to 100 | > 1000
17 | COc1nc(-c2ccnc(Nc3ccc(N4CCC(C)(N)CC4)cn3)n2)cc2c1ncn2C(C)C [compound 118] | – | – | – | 100 to 500 | < 100 | < 10 | 10 to 100 | > 1000
18 | COc1nc(-c2ccnc(Nc3ccc(N4CCN(CCF)CC4=O)cn3)n2)cc2c1ncn2C(C)C [compound 122] | – | – | – | < 100 | < 100 | < 10 | 10 to 100 | 100 to 1000
19 | COc1nc(-c2ccnc(Nc3ccc(N4CCN(CCF)CC4)cn3)n2)cc2c1ncn2C(C)C [compound 123] | – | – | – | 100 to 500 | 100 to 500 | < 10 | 10 to 100 | > 1000
20 | COc1nc(-c2nc(Nc3ccc(N4CCN(CCF)CC4=O)cn3)ncc2F)cc2c1ncn2C(C)C [compound 126] | – | – | – | 100 to 500 | 100 to 500 | < 10 | 10 to 100 | 100 to 1000
21 | COc1nc(-c2nc(Nc3ccc(N4CCN(C5COC5)CC4=O)cn3)ncc2F)cc2c1ncn2C(C)C [compound 129] | – | – | – | 100 to 500 | < 100 | < 10 | 10 to 100 | > 1000
22 | COc1nc(-c2nc(Nc3ccc(N4CCN(C5COC5)CC4=O)cn3)ncc2F)cc2c1nc(C)n2C(C)C [compound 131] | – | – | – | 100 to 500 | 100 to 500 | < 10 | 10 to 100 | > 1000
23 | CCN1CCN(c2ccc(Nc3ncc(F)c(-c4cc5c(ncn5C(C)C)c(OC)n4)n3)nc2)C(=O)C1 [compound 132] | – | – | – | 100 to 500 | < 100 | < 10 | 10 to 100 | > 1000
24 | CC(C)c1cnn2ccc(-c3ccnc(Nc4ccc(N5CC(N(C)C)CCC5=O)cn4)n3)cc12 (stereo not drawn) [compound 156] | – | – | – | 100 to 500 | < 100 | 10 to 100 | 100 to 1000 | 10 to 100
25 | CC(C)c1cnn2ccc(-c3ccnc(Nc4ccc(N5CCCC(N(C)C)C5=O)cn4)n3)cc12 (stereo not drawn) [compound 157] | – | – | – | < 100 | < 100 | < 10 | 10 to 100 | 100 to 1000
26 | CC(C)c1cnn2ccc(-c3nc(Nc4ccc(N5CCC(N6CC(F)(F)C6)CC5=O)cn4)ncc3F)cc12 (stereo not drawn) [compound 158] | – | – | – | < 100 | < 100 | < 10 | 10 to 100 | 10 to 100
27 | CC(C)c1cnn2ccc(-c3nc(Nc4ccc(N5CCC(NC6CC(F)(F)C6)CC5=O)cn4)ncc3F)cc12 (stereo not drawn) [compound 159] | – | – | – | < 100 | < 100 | < 10 | 10 to 100 | 10 to 100
